According to US20070066594A1, “Crystalline forms fenoldopam mesylate” (priority 2005, published 2007):

Key:
Format in all cases: physicochemical
[1] = Hygroscopicity: water content by TGA after exposure to relative humidity; details: for Water content (by TGA): Table 4
Procedure: The TGA analysis was performed with a Mettler M3 thermogravimeter with samples of about 8 mg and a scan rate of 10° C./min from 25° C. to 200° C., subtracting a blank from the sample. The TGA oven was constantly purged with nitrogen gas at a flow rate of 40 ml/min, and standard 150 μl alumina crucibles covered by lids with 1 hole were used.
(§1) TGA analysis determined that this form has a water content of 7.8 percent by weight water.
Fenoldopam Type VI was produced when a mixture of about 50 mg of fenoldopam mesylate Type I, produced in Examples 2 and 4, was exposed to 0 percent relative humidity at room temperature for 8 days.

[2] = Stability under humid conditions: crystalline form by XRD after exposure to relative humidity
Procedure: (§2) X-Ray powder diffraction data were obtained by using methods known in the art with a SCINTAG powder X-Ray diffractometer model X'TRA equipped with a solid-state detector. The X-Ray radiation was copper radiation, having a wavelength of 1.5418 Å. A round aluminum sample holder with zero background was used for the measurements. All peak positions are within ±0.2° 2θ.
as §1
Fenoldopam mesylate Type I was stored at 100 percent relative humidity for 8 days at room temperature. […]

[3] = Stability on drying/heating at 80° under vacuum, crystalline form by XRD; details: dried 16 hours at 80° under vacuum; methanesulfonate
Procedure: as §2
An 81.5 gram sample of the product produce in Example 17 was dried for 16 hours at 80° under vacuum, providing a yield of 81.2 grams, having a water content of 0.05 percent by weight, and an isopropanol content of 1620 ppm. An XRD analysis confirmed the product sample was fenoldopam mesylate Type II.
A 4.08 gram sample of the product of Example 22 was dried at 80° C. under vacuum for 16 hours, providing a yield of 3.95 grams, having a water content of 0.02 percent by weight and a methanol content of 766 ppm. An XRD analysis confirmed the product sample was fenoldopam mesylate Type III.

[4] = 100 percent relative humidity, more than about 7 days, room temperature

With CS(=O)(=O)O.Oc1ccc(C2CNCCc3c2cc(O)c(O)c3Cl)cc1 (centres unmarked) [Type I, 6-chloro-2,3,4,5-tetrahydro-1-(4-hydroxyphenyl)-[1H]-3-benzazepine-7,8-diol methanesulfonate] the “Water content (by TGA)” value ([1]; 0 % RH, 8 days, room temperature) was 0.9, the “Water content (by TGA)” value ([1]; 20 % RH, 8 days) was 7.9 and the “Water content (by TGA)” value ([1]; 40 % RH, 8 days) was 8.0. The “Water content (by TGA)” value ([1]; 60 % RH, 8 days) was 7.9, the “Water content (by TGA)” value ([1]; 80 % RH, 8 days) was 8.0 and the “Water content (by TGA)” value ([1]; initial) was 8.0. For the same compound, the “Time the crystalline form is stable (remains as the Type I dihydrate) on exposure to relative humidity” value ([2]; 0 to 100% relative humidity) was “more than 5 days”, the “Crystalline form (by XRD)” value ([2]; 20 % RH, 8 days, room temperature) was “Type I” and the “Crystalline form (by XRD)” value ([2]; 40 % RH, 8 days, room temperature) was “Type I”. For the same compound, the “Crystalline form (by XRD)” value ([2]; 60 % RH, 8 days, room temperature) was “Type I”, the “Crystalline form (by XRD)” value ([2]; 80 % RH, 8 days, room temperature) was “Type I” and the “Crystalline form (by XRD)” value ([2]; 100 % RH, 8 days, room temperature, methanesulfonate) was “remains fenoldopam mesylate Type I”. The “Crystalline form (by XRD)” value ([2]; Table 4, 0 % RH, 8 days, room temperature) was “Type VI”, the “Crystalline form (by XRD)” value ([2]; Table 4, 20 % RH, 8 days) was “Type I” and the “Crystalline form (by XRD)” value ([2]; Table 4, 40 % RH, 8 days) was “Type I”. For the same compound, the “Crystalline form (by XRD)” value ([2]; Table 4, 60 % RH, 8 days) was “Type I”, the “Crystalline form (by XRD)” value ([2]; Table 4, 80 % RH, 8 days) was “Type I” and the “Crystalline form (by XRD)” value ([2]; Table 4, initial) was “Type I”. The “Crystalline form (by XRD)” value ([2]; initial sample) was “Type I”.

For CS(=O)(=O)O.Oc1ccc(C2CNCCc3c2cc(O)c(O)c3Cl)cc1 (centres unmarked) [Type II, 6-chloro-2,3,4,5-tetrahydro-1-(4-hydroxyphenyl)-[1H]-3-benzazepine-7,8-diol methanesulfonate, reference compound], the “Crystalline form (by XRD) after drying” value [3] was “Type II”.

For CS(=O)(=O)O.Oc1ccc(C2CNCCc3c2cc(O)c(O)c3Cl)cc1 (centres unmarked) [Type III, 6-chloro-2,3,4,5-tetrahydro-1-(4-hydroxyphenyl)-[1H]-3-benzazepine-7,8-diol methanesulfonate], the “Crystalline form (by XRD) after drying” value [3] was “Type III”, the “Crystalline form (by XRD)” value ([2]; Table 3, 80 % RH, 8 days) was “Type III” and the “Crystalline form (by XRD)” value ([2]; Table 3, 100 % RH, 8 days) was “Type III”. The “Crystalline form (by XRD)” value ([2]; Table 3, initial sample) was “Type III”.

In the case of CS(=O)(=O)O.Oc1ccc(C2CNCCc3c2cc(O)c(O)c3Cl)cc1 (centres unmarked) [Type V, 6-chloro-2,3,4,5-tetrahydro-1-(4-hydroxyphenyl)-[1H]-3-benzazepine-7,8-diol methanesulfonate], the “Water content (by TGA) after humidity exposure” value [1, 4] is reported as 7.8 percent by weight and the “Crystalline form after humidity exposure (by PXRD)” value [2, 4] is reported as “transforms this form to Type I”.
